Legend:
[1] = system: human retinal microvascular endothelial cells (HRMEC); experiment: VEGF-induced HRMEC proliferation study; assay type: cell-based
Protocol: VEGF-Induced Human Retinal Microvascular Endothelial Cells (HRMEC) Proliferation Study
VEGF is a factor which promotes neovascularization and is thought to be one of the causes of development or progression of age-related macular degeneration (Prog. Retinal Eye Res., 22 (1), 1-29 (2003)). Therefore, the inhibitory effect of the compounds of the invention against VEGF-induced cell proliferation is assessed by using human retinal vascular endothelial cells (HRMEC).
HRMEC are seeded in 96-well plates at 2.0×10^3 cells/well, and is cultured under the conditions of 5% CO2/95% air for 24 hours. Then the culture medium is exchanged with CSC medium containing 10% fetal bovine serum and the cells are cultured for 24 hours. The culture broth is exchanged with vehicle medium or study medium containing the compound of the invention at 0.1, 1.0, 10, or 100 microM. After preincubation for 1 hour, VEGF-A solution is added to be a concentration of 10 ng/ml, and the cells cultured for 24 hours. The culture broth without adding VEGF-A solution is also treated in the same manner. Then to the culture broth is added CCK-8, and the cells are cultured for 3 hours, then the absorbance (OD492) is measured.
In accordance with the following formula, the cell proliferation inhibition rate (%) of each compound-treated group is calculated. The number of examples of each group is six. Cell proliferation inhibition rate (%)=([…])×100 [equation] BO: absorbance of vehicle-treated group BX: absorbance of compound-treated group BN: absorbance of non-treated group

[2] = system: choroidal neovascularization; experiment: Laser-induced choroidal neovascularization (CNV) model; assay type: in vivo, male C57BL/6J mouse; conditions: in comparison to the vehicle-treated group
Protocol: Laser-Induced Choroidal Neovascularization (CNV) Model A male C57BL/6J mouse is used. Mydrin P ophthalmic solution (registered trademark, Santen Pharmaceutical) is instilled into the right eye of the mouse to cause mydriasis. Animals are anesthetized, and laser irradiation is performed on around the circumference of the optic disk with eight equally space using a laser photocoagulation apparatus. After photocoagulation, intravitreal administration of drugs to the right eye (administering 2 microL of a solution of 60 microM and 600 microM using a solvent obtained by mixing 0.1N NaOH and pH 7.2 PBS containing 1.5×10^-3N HCl, at the ratio of 16:84) or oral administration/subcutaneous administration/intraperitoneal administration is conducted. After instillation of […] (registered trademark, Daiichi Sankyo) ophthalmic solution 0.5% into the right eye, the ocular fundus photography is promptly performed using an ocular fundus camera. […] Choroidal flat mounts specimens are observed using a confocal laser scanning microscope, and the CNV area of the image is calculated using the analysis software OLYMPUS FLUOVIEW FV1000.

CC(C)(C)c1cc2c(cc1Cl)C=C(C(=O)O)[C@@H](C(F)(F)F)O2 [Compound A, (S)-6-chloro-7-(1,1-dimethylethyl)-2-trifluoromethyl-2H-1-benzopyran-3-carboxylic acid]
effect on the proliferation of HRMEC ([1]; Compound A alone, without VEGF-A, FIG. 1 left side): no effect | inhibition of the proliferation of HRMEC induced by VEGF-A ([1]; VEGF-A 10 ng/ml, 24 hours, compound at 0.1, 1.0, 10, or 100 microM, FIG. 1 right side): inhibits the proliferation of HRMEC induced by VEGF-A in a dose-dependent manner | inhibition of VEGF-A-induced cell proliferation ([1]; at 10 to 100 microM, VEGF-A 10 ng/ml): inhibits the cell proliferation to control levels | CNV area ([2]; choroidal flat mount, day 15 after laser, FIG. 2): significantly reduced | CNV area (pathological image) ([2]; histopathological specimens, FIG. 3): significantly reduced
